{"source": "patent US20260234188A1", "about": "“CHEMOKINE-BINDING PEPTIDES” (Oxford University Innovation Limited, priority 2022, published 2026)", "tested_on": "panel of 25 biotinylated chemokines (15 CC-class chemokines, 10 CXC-class chemokines)", "test": "Phage-display screen of HD845 NNK mutagenesis library", "format": "binding, human", "conditions": "for peak log 2 E: best mutation at each residue", "method": "NNK mutagenesis library construction and screening was performed for the HD845 peptide using the methods described in Example 19. […] Following library selection with each chemokine, the enrichment (E) of each peptide was calculated in comparison to the input library, and expressed the enrichment as log 2 E, as this metric is correlated with binding affinity.\nA two-pronged strategy was used to identify individual peptides with mutations that improve chemokine binding over the parental peptide HD845. To identify mutations that improve overall chemokine binding affinity, the best performing mutations were selected at each residue by their enhancement of mean log 2 E (FIG. 27A). To add in mutations that improve chemokine binding diversity, the best performing mutations at each residue were identified by their enhancement of peak log 2 E (FIG. 27B).", "data": [{"sequence": "EDEDYEDFFAPVTCYF [K10A]", "values": [{"measurement": "peak log 2 E", "value": "highest peak log 2 E at that residue"}, {"measurement": "mean log 2 E compared to parental HD845", "setting": "over CC chemokines", "value": "significant improvement"}, {"measurement": "mean log 2 E compared to parental HD845", "setting": "over all chemokines", "value": "significant improvement"}]}, {"sequence": "EDEDYFDFFKPVTCYF [E6F]", "values": [{"measurement": "mean log 2 E compared to parental HD845", "setting": "over CC chemokines", "value": "significant improvement"}]}, {"sequence": "EDEDYWDFFKPVTCYF [E6W]", "values": [{"measurement": "peak log 2 E", "value": "highest peak log 2 E at that residue"}, {"measurement": "mean log 2 E compared to parental HD845", "setting": "over XC chemokines", "value": "significant improvement"}, {"measurement": "mean log 2 E compared to parental HD845", "setting": "over all chemokines", "value": "significant improvement"}]}]}
